The source made the active and inactive calls. No rule for the calls is given here.
Tested on: Trypanosoma brucei growth inhibition
Assay: T. brucei growth inhibition (AID 1159557);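 also: parasites exposed to compound for 48 h before the resazurin readout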

| SMILES | IC50 |
| --- | --- |
| Nc1nc(-c2ccccn2)nc(N)c1Cc1c(F)cccc1Cl | 2.5 µM |
| CCN(CC)S(=O)(=O)c1ccc(C)c(NC(=O)c2cc(Cl)c3c(c2)OCO3)c1 | 0.32 µM |
| CCOc1ccccc1C(=O)Nc1nnc(-c2ccc3c(c2)OCO3)s1 | > 40 µM (inactive) |
| Cc1[nH]n2c(=O)c3c(nc2c1-c1ccc(Cl)cc1)CCCC3 | 0.16 µM |
| CCCCN(C(=O)c1ccc(NC(=O)C(C)C)cc1)c1ccccc1 | 16 µM |
| Cc1nc(-c2ccc3c(c2)OCO3)sc1C(=O)NCc1ccc2c(c1)OCO2 | 10 µM |
| Cc1cc(Br)sc1CNCCCNc1cc(=O)c2ccccc2[nH]1 | 0.063 µM |
| O=[N+]([O-])c1ccc(-c2nnn(-c3cccnc3)n2)o1 | 0.32 µM |
| CC(=O)Nc1ccc(-c2ccnc(Nc3cccc(C#N)c3)n2)cc1 | 0.63 µM |
| CNS(=O)(=O)c1ccccc1Nc1nc(Nc2cc(C)nn2C)ncc1Cl | 0.063 µM |
| CS(=O)(=O)NC1CCC(Oc2cc3cnccc3cc2-c2ccsc2)CC1 (stereo not drawn) | 16 µM |
| O=C1CN(Cc2ccco2)C2CS(=O)(=O)CC2N1c1ccc(Cl)cc1 (stereo not drawn) | 0.32 µM |
| N#CN1CC[C@@H](NC(=O)Nc2ccccc2Oc2ccccc2)C1 | 1 µM |
| O=C(Nc1n[nH]c(-c2ccccn2)n1)C1CC1c1ccccc1 (stereo not drawn) | > 13 µM (inactive) |
| CC(C)Oc1cccc(N2CCC(C(=O)N3CCCN(C(C)C)CC3)CC2)c1 | > 40 µM (inactive) |
| NC(=O)c1ncc(N[C@@H]2CCCNC2)nc1Nc1cccc(Cl)c1 | 0.13 µM |
| O=C(CCCn1cnc([N+](=O)[O-])n1)Nc1cccc(Cl)c1 | 5 µM |
| O=C(NCCc1cccnc1)c1ccc(-c2ccccc2F)o1 | 32 µM |
| COc1ccc(C2CC(c3ccc(NS(C)(=O)=O)cc3)=NN2C(=O)c2cccs2)cc1OC (stereo not drawn) | 16 µM |
| Nc1nccc(-c2csc(Nc3ccc(Cl)cc3)n2)n1 | > 40 µM (inactive) |
| O=C(Cn1cnc2c(-c3ccccc3)csc2c1=O)N1CCCCC1 | 0.79 µM |
| COc1ccnc2[nH]cc(-c3cc(C(=O)N[C@H](CO)c4ccccc4)co3)c12 | 0.005 µM |
| O=C(Nc1nc(-c2ccccn2)cs1)c1ccccc1-n1cnnn1 | 0.63 µM |
| Cc1ccc(NC(=O)c2ccc(Cl)c(NC(=O)c3ccc([N+](=O)[O-])cc3)c2)cc1 | 7.9 µM |
| COc1ccc(Nc2nc(NC3CCC(O)CC3)ncc2Br)c(C(N)=O)c1 (stereo not drawn) | 0.1 µM |
| Cc1nc2nc(C)c(Cc3ccc(C(C)C)cc3)c(=O)n2[nH]1 | > 40 µM (inactive) |

| SMILES | IC50 |
| --- | --- |
| COc1ccc2ncc(=O)n(CCN3CC[C@H](NCc4ncc(Cl)c5[nH]ncc45)[C@H](O)C3)c2n1 | 0.32 µM |
| NC(=O)c1cc(F)ccc1Nc1nc(NC2CCC(O)CC2)ncc1Br (stereo not drawn) | 0.079 µM |
| Cn1nc(C(=O)N2CCc3ccccc32)c2c1CCS(=O)(=O)C2 | 4 µM |
| Cc1[nH]nc2c1C(c1ccc(OCc3ccccc3F)cc1)SCC(=O)N2 (stereo not drawn) | 25 µM |
| CS(=O)(=O)N1CCC(Nc2ncc(Br)c(Nc3cccc(F)c3C(N)=O)n2)CC1 | 0.01 µM |
| Cc1cc(Br)cc(C(=O)c2c(C(C)C)c(=O)[nH]c(=O)n2Cc2ccnc(N)c2)c1 | 13 µM |
| C=CCN(Cc1cccs1)C(=O)CSc1nnc(-c2ccc3c(c2)OCO3)o1 | 20 µM |
| O=C(COc1ccccc1)Nc1ccccc1C(=O)Nc1nccs1 | 0.4 µM |
| COc1ccc(-c2nc3ncccc3o2)cc1NC(=O)c1cccs1 | 1.3 µM |
| FC(F)(F)c1cc(C2CCCN(Cc3c[nH]c4ccccc34)C2)nc2ncnn12 (stereo not drawn) | > 40 µM (inactive) |
| Cc1nc(-c2ccncc2)ncc1C(C)NC(=O)c1ccc(Cl)s1 (stereo not drawn) | 1 µM |
| CCOc1ccc(N(C)S(=O)(=O)c2ccc3[nH]cc(C(=O)NC4CCCC4)c(=O)c3c2)cc1 | 0.25 µM |
| Cn1cc(CN2CCN(c3ccc4c(c3)CCN(C(=O)[C@H]3C[C@@H]3c3ccccc3)CC4)CC2)cn1 | 25 µM |
| CC(Cn1ccnc1)NC(=O)C1CC1c1cccc(Cl)c1Cl (stereo not drawn) | > 40 µM (inactive) |
| Nc1nonc1-c1nc2cncc(C(=O)N3CC[C@H](N)C3)c2n1CC1CC1 | 0.63 µM |
| O=C(NCC(c1cccs1)N1CCOCC1)c1ccc([N+](=O)[O-])o1 (stereo not drawn) | 0.32 µM |
| Clc1cc(Br)ccc1OCCCCn1ccnc1 | 10 µM |
| CCc1cccc(CC)c1-n1c(SCC(=O)NC(=O)NCc2ccco2)nnc1-c1cccnc1 | 0.4 µM |
| COCc1cnc2c(c1SCc1c(F)cccc1Cl)c(=O)n(C)c(=O)n2C | 4 µM |
| Cc1c(Nc2cc(C3CC3)[nH]n2)ccc(C#N)c1Cl | 0.4 µM |
| Cc1nnnn1-c1cccc(C(=O)N2CCC[C@@]3(C)c4ncncc4CCC23)c1 (stereo partly drawn) | > 40 µM (inactive) |
| Cc1nc(C(=O)Nc2ccc3c(c2)OCO3)nn1-c1ccc(Cl)cc1 | > 40 µM (inactive) |
| CCOc1ccc(NC(=O)C=Cc2ccc(CC)o2)cc1 | 16 µM |
| CC(C)CC(=O)NC(c1cccs1)c1ccc2cccnc2c1O (stereo not drawn) | 0.63 µM |
| O=S(=O)(NCC(c1cccnc1)N1CCN(c2ccc(F)cc2)CC1)c1cccs1 (stereo not drawn) | > 40 µM (inactive) |
| CC(=O)NC1(c2ccccc2)CCN(CC(=O)Nc2ccccc2-c2ccccc2)CC1 | 0.63 µM |

Further lines, results first:

| IC50 | SMILES |
| --- | --- |
| 0.32 µM | CCN(CC)S(=O)(=O)c1ccc(C(=O)Nc2cc(C)nn2-c2nc(C)c(C)c(=O)[nH]2)cc1 |
| 16 µM | O=C1CN(C2CCCc3c(OCc4ccncc4)cccc32)C(=O)N1C1CCCCC1 (stereo not drawn) |
| > 40 µM (inactive) | O=S(=O)(c1ccccc1C(F)(F)F)N1CCN(Cc2ccc(-n3ccnc3)cc2)CC1 |
| 2 µM | CCCn1c(NC(=O)Cc2ccc(Cl)cc2)nc2ccccc21 |
| 32 µM | Fc1ccccc1N1C[C@H]2CCN(c3cccnc3)C[C@H]2C1 |
| > 40 µM (inactive) | O=C(NCc1ccc(-n2cccc2)cc1)c1nc(Cn2ccc([N+](=O)[O-])n2)no1 |
| 0.25 µM | C[C@@H](Oc1cc(-n2cnc3cc(N)ccc32)sc1C(N)=O)c1ccccc1Cl |
| 0.79 µM | CN(Cc1nc2ccc(C(=O)NCC3CCCCC3)cc2[nH]1)C1CCCc2cccnc21 (stereo not drawn) |
| 40 µM | Cc1ccc2c(c1)-c1onc(C(=O)N3CCCCC3c3cccnc3)c1CO2 (stereo not drawn) |
| 0.2 µM | Cc1cc(NC(=O)CC2CCCCC2)n(-c2nc3c(c(=O)[nH]2)CCC3)n1 |
| 20 µM | Cn1nc([N+](=O)[O-])nc1Oc1ccc(C(=O)c2ccccc2)cc1 |
| 0.0079 µM | N#Cc1c(Oc2cccc(Cl)c2)cccc1[N+](=O)[O-] |
| 25 µM | COc1ccc(C)cc1-c1csc(NC(=O)C(C)n2ccnc2)n1 (stereo not drawn) |
| 6.3 µM | COc1ccc(Nc2nccc(N(C)c3n[nH]c4c(F)cccc34)n2)cc1S(C)(=O)=O |
| 0.79 µM | O=c1cc(CSc2ccc(Cl)cc2)nc(-c2ccccn2)[nH]1 |
| > 40 µM (inactive) | N#Cc1cccc(CN2CCC(c3nc(-c4ccc(C(F)(F)F)nc4)no3)CC2)c1 |
| > 40 µM (inactive) | COc1ccccc1C=CCN1C[C@H]2CCC[C@@H](C1)C2(O)c1cccnc1 (stereo partly drawn) |
| 25 µM | O=C(CCc1ccc(-c2ccccc2)o1)N1CCN(c2ccc(O)cc2)CC1 |
| 0.63 µM | O=C(O)[C@H]1C[C@@H]1c1ccc(-c2ccc(CN(CCc3ccccn3)C(=O)C3CCC3)cc2)cc1 |

| IC50 | SMILES |
| --- | --- |
| 7.9 µM | CC(C)(C)c1cc(NC2CC2)nc(-c2ccccn2)n1 |
| 25 µM | Fc1ccc(Nc2nc(-c3ccccn3)cs2)cc1 |
| 0.2 µM | NS(=O)(=O)c1ccc(Nc2ncc3cccc(OC4CCNCC4)c3n2)cc1 |
| > 40 µM (inactive) | Cc1ccc(C)c(OC2CCN(C(=O)C(C)n3ccnc3)CC2)c1 (stereo not drawn) |
| 0.13 µM | Cc1[nH]nc(Nc2ccnc3[nH]ccc23)c1C |
| 25 µM | c1cncc(CN(Cc2ccco2)Cc2cn[nH]c2-c2cccs2)c1 |
| 20 µM | Cc1cc(C)c(C#N)c(SCC(=O)c2ccc3c(c2)OCO3)n1 |
| > 40 µM (inactive) | CCN(Cc1ccncc1)Cc1ccc(NC(=O)c2cc(-c3ccc(F)cc3)n[nH]2)cc1 |
| 0.4 µM | OC[C@@H](Nc1nccc(-c2c(-c3ccc(F)cc3)ncn2C2CCNCC2)n1)c1ccccc1 |
| 0.5 µM | O=C(NCCc1csc(-c2cccc(F)c2)n1)c1ccco1 |
| > 40 µM (inactive) | CC1(Oc2cncc(Cl)c2)CCN(Cc2cc3ccccc3[nH]2)C1 (stereo not drawn) |
| 10 µM | CCCCNc1nccc(-c2c(-c3ccc(F)cc3)nn3c(N4CCOCC4)cccc23)n1 |
| 5 µM | OCC1CCCCN1c1cc(-c2ccccn2)nc(Nc2ccccc2)n1 (stereo not drawn) |
| 0.01 µM | Cc1sc(C)c(C(F)(F)F)c1CNCCCNc1cc(=O)c2ccccc2[nH]1 |
| 5 µM | CN(C)CCN(C)Cc1ccc(F)cc1NS(=O)(=O)c1ccc(Cl)c(Cl)c1 |
| 0.63 µM | C[C@@H](Oc1cc(-n2cnc3ccc(CC(O)CO)cc32)sc1C(N)=O)c1ccccc1Cl (stereo partly drawn) |
| 10 µM | O=C(CSc1ccc(-c2ccccn2)nn1)Nc1ccc(Cl)cc1 |
| 0.79 µM | Cc1cc(Oc2cc(Cl)c(Cl)cc2Cl)n2ncnc2n1 |
| 1 µM | O=C(NCC1CCCCC1)c1cnns1 |

| IC50 | SMILES |
| --- | --- |
| 0.05 µM | Cc1cc(Nc2cc(C3CC3)[nH]n2)nc(N2CCCC2)n1 |
| > 40 µM (inactive) | Cc1cc(C)nc(N2CCC(N(Cc3cccnc3)C(=O)c3cccc(C#N)c3)CC2)n1 |
| 25 µM | CN(C)Cc1ccc(-c2ccc(S(=O)(=O)NCC3CCCO3)c(F)c2)cc1 (stereo not drawn) |
| > 40 µM (inactive) | O=C(COc1nn(-c2ccccc2)c2ncccc12)NCc1ccccc1 |
| > 40 µM (inactive) | O=C1CCCCCC1(Cc1cnc[nH]1)c1ccc(Cl)cc1Cl (stereo not drawn) |
| 13 µM | Cc1ccc2nc(N(Cc3cccnc3)C(=O)CCc3ccccc3)sc2c1 |
| 13 µM | CC(C)Oc1ccc(C(=O)Nc2ccc(N3CCOCC3)c(Cl)c2)cc1 |
| 20 µM | Cc1cc2ncn(-c3ccc([N+](=O)[O-])cc3C#N)c2cc1C |
| 5 µM | COc1ccc(NS(=O)(=O)c2cc(NC(=O)Cc3ccc(C)cc3)ccc2N2CCOCC2)cc1 |
| 0.079 µM | Cc1cc2nc(N3CC[C@H]3C(N)=O)nc(Nc3cc(C4CC4)[nH]n3)c2s1 |
| 32 µM | c1ccc(CCNCc2cncc3nc(-c4cnccn4)n(C4CCCCC4)c23)cc1 |
| 16 µM | CCC(=O)N1N=C(c2ccc3c(c2)CCCC3)Sc2c1ncn2C(=O)CC |
| 0.25 µM | NS(=O)(=O)c1ccc(CNC(=O)c2ccc([N+](=O)[O-])s2)cc1 |
| 20 µM | Cc1c(C(=O)NCCCCn2ccnc2)oc2c(C)cccc12 |
| 25 µM | CC(C(=O)Nc1ccccc1F)N(C)CC(=O)Nc1cccc2ccccc12 (stereo not drawn) |
| 0.16 µM | Cc1ccc(S(=O)(=O)Nc2ccc(CN3CCN(C(=O)c4cccc(C#N)c4)CC3)cc2)cc1 |
| 0.5 µM | CCc1cccc(CC)c1-n1c(SCC(=O)N2CC(=O)Nc3ccccc32)nnc1-c1cccnc1 |
| 0.63 µM | CNC(=O)C1Cc2ccccc2N1C(=O)COc1cccc(OC)c1 (stereo not drawn) |

From PubChem BioAssay AID1159557 (GlaxoSmithKline (GSK), 2015)
